In patent publication US7579376B2, “Geranyl compounds” (Ohgen Research Laboratories, Ltd., priority 2002, dated 2009):

Key:
[1] = system: HuH-7 cells (dendriform cell strain of human hepatoma); assay: Measurement of antitumor effect: HuH-7 carcinoma pieces hypodermically implanted in nude mice, carcinomas weighed after administration; format: in vivo; conditions: Huh-7, ip, 504 h, carcinoma weight relative to control group (100%), 250 μg/mouse intraperitoneally in corn oil once per day for 3 weeks, starting a week after implantation
Experimental: Measurement of Antitumor Effect
(§1) Carcinoma of HuH-7 cells (dendriform cell strain of human hepatoma) hypodermically implanted or subimplanted in the backs of 5-weeks old female nude mice (BALB/c, Ninox) was aseptically taken out and crushed into 5×5 mm sized pieces in a phosphate buffer solution (PBS), a piece of which then being hypodermically implanted in the backs of the nude mice.
(§2) Each test substance was dissolved in corn oil, and the solution was intraperitoneally administered to the nude mice consecutively once per day at a rate of 250 μg/mouse for 3 weeks, starting from a week after the implantation. After termination of the administration, the carcinomas were taken out and weighed to calculate the antitumor effect and the mice' weight loss by the following equations. For the test six mice per group were used, and the group administered with the solvent (corn oil) alone was made the control group:
(§3) Evaluations of antitumor effect and weight loss were conducted according to the following standard, where the control group values were held to be 100%.
• −: >100%, +/−: 100˜75%, +: 75˜50%, ++: 50˜25%, +++: 25˜0% Weight Loss • −: >110%, +/−: 110˜100%, +: 100˜95%, ++: 95˜90%, +++: <90% Death Rate (Death Rate During the Test Period) • −: none • +/−: death occurred with high concentration administration (500 μg/mouse) • +: 1-3 mice dead • ++: 3-5 mice dead • +++: all 6 mice dead Synthetic Evaluation • −: weak antitumor effect and very strong toxicity against host mice • +/−: weak antitumor effect recognizable and toxicity against host mice also observable • +: a fixed level of antitumor effect observable but toxicity against host mice also strong • ++: strong antitumor effect observed and toxicity against host mice week • +++: strong antitumor effect observed and no toxicity against host mice

[2] = Toxicity against host mice (weight loss, death rate) in the HuH-7 antitumor test; format: in vivo; conditions: 250 μg/mouse intraperitoneally once per day for 3 weeks, six mice per group; for Toxicity Death rate: death rate during the test period; for Toxicity Weight loss: mouse weight relative to control group (100%)
Experimental: as §1, §2, §3

Row | SMILES | response vs control in vivo at 0.25 mg [1] [%] | Toxicity Death rate [2] | Toxicity Weight loss [2]
1 | CC(C)=CCC/C(C)=C/CNC(=O)[C@@H](N)Cc1ccc(O)cc1 [Tyrosine geranylamide, Tyrosine Geranylamide] | 50 to 75 | − | +/− (110˜100%)
2 | CC(O)(CCO)CC(=O)NC1C(O)OC(CO)C(O)C1O (stereo not drawn) | 25 to 50 | − | +/− (110˜100%)
3 | CC(=O)N[C@@H](Cc1ccc(O)cc1)C(=O)NC/C=C(\C)CCC=C(C)C [N-acetyltyrosine geranylamide, N-acetyltyrosine Geranylamide] | 50 to 75 | − | +/− (110˜100%)
4 | CC(C)=CCC/C(C)=C/CNC(=O)/C=C/C(=O)NC/C=C(\C)CCC=C(C)C [N,N′-digeranylfumaric diamide, N,N′-digeranylfumaric Diamide] | 25 to 50 | − | +/− (110˜100%)
5 | CC(C)=CCC/C(C)=C/C(=O)NC1C(O)OC(C)C(O)C1O (stereo not drawn) [N-fucosegeranamide] | 25 to 50 | − | +/− (110˜100%)
6 | CC(C)=CCC/C(C)=C/CNC(=O)CC(O)C(=O)NC/C=C(\C)CCC=C(C)C (stereo not drawn) [N,N′-digeranylmalic diamide, N,N′-digeranylmalic Diamide] | 50 to 75 | − | + (100˜95%)
7 | CC(C)=CCC/C(C)=C/C(=O)NC1C(O)OC(CO)C(O)C1O (stereo not drawn) | 0 to 25 | − | + (100˜95%)
8 | CC(C)=CCC/C(C)=C/C(=O)N[C@@H](Cc1ccc(O)cc1)C(=O)O [N-geranoyltyrosine] | 25 to 50 | − | +/− (110˜100%)
9 | CC(C)=CCC/C(C)=C/CNC(=O)C1OC(O)C(O)C(O)C1O (stereo not drawn) [N-geranyl galacturonamide, N-geranylgalacturonamide] | 0 to 25 | +/− | +/− (110˜100%)
10 | CC(=O)C(=O)Nc1ccc(C(=O)NC/C=C(\C)CCC=C(C)C)cc1 [N-geranyl-4-pyruvoaminobenzamide, N-geranyl-p-pyruvoaminobenzamide] | 25 to 50 | − | − (>110%)
